Data from PubChem BioAssay AID1259407 (Chemical Carcinogenesis Research Information System (CCRIS), 2018).
Calls of active or inactive are those of the source. No rule for the calls is given here.

Tested on: CCRIS mutagenicity, Ames/micronucleus/aberration tests
Assay: CCRIS mutagenicity studies
[1] = Test System: AMES SALMONELLA TYPHIMURIUM, Strain/Indicator: TA98, Metabolic Activation: NONE, Method: STANDARD PLATE
[2] = Test System: AMES SALMONELLA TYPHIMURIUM, Strain/Indicator: TA100, Metabolic Activation: NONE, Method: PREINCUBATION
[3] = Test System: AMES SALMONELLA TYPHIMURIUM, Strain/Indicator: TA100, Metabolic Activation: NONE, Method: STANDARD PLATE

In the case of `CC(C)(C)S(=O)(=O)C[C@@H](Cc1ccccc1)C(=O)N[C@@H](Cc1cnc[nH]1)C(=O)N[C@@H](CC1CCCCC1)[C@@H](O)[C@@H](O)C1CC1`, the mutagenic call (Test System: AMES SALMONELLA TYPHIMURIUM, Strain/Indicator: TA97, Metabolic Activation: NONE, Method: PREINCUBATION) is reported as “inactive; negative”, the mutagenic call (Test System: AMES SALMONELLA TYPHIMURIUM, Strain/Indicator: TA97, Metabolic Activation: NONE, Method: STANDARD PLATE) is reported as “inactive; negative” and the mutagenic call (Test System: AMES SALMONELLA TYPHIMURIUM, Strain/Indicator: TA97, Metabolic Activation: RAT, LIVER, S-9, PHENOBARBITAL AND BETA-NAPHTHOFLAVONE, Method: PREINCUBATION) is reported as “inactive; negative”. The mutagenic call (Test System: AMES SALMONELLA TYPHIMURIUM, Strain/Indicator: TA97, Metabolic Activation: RAT, LIVER, S-9, PHENOBARBITAL AND BETA-NAPHTHOFLAVONE, Method: STANDARD PLATE) was “inactive; negative”, the mutagenic call (Test System: AMES SALMONELLA TYPHIMURIUM, Strain/Indicator: TA98, Metabolic Activation: NONE, Method: PREINCUBATION) was “inactive; negative” and the mutagenic call [1] was “inactive; negative”. For the same molecule, the mutagenic call (Test System: AMES SALMONELLA TYPHIMURIUM, Strain/Indicator: TA98, Metabolic Activation: RAT, LIVER, S-9, PHENOBARBITAL AND BETA-NAPHTHOFLAVONE, Method: PREINCUBATION) was “inactive; negative”, the mutagenic call (Test System: AMES SALMONELLA TYPHIMURIUM, Strain/Indicator: TA98, Metabolic Activation: RAT, LIVER, S-9, PHENOBARBITAL AND BETA-NAPHTHOFLAVONE, Method: STANDARD PLATE) was “inactive; negative” and the mutagenic call [2] was “inactive; negative”. The mutagenic call [3] was “inactive; negative”, the mutagenic call (Test System: AMES SALMONELLA TYPHIMURIUM, Strain/Indicator: TA100, Metabolic Activation: RAT, LIVER, S-9, PHENOBARBITAL AND BETA-NAPHTHOFLAVONE, Method: PREINCUBATION) was “inactive; negative” and the mutagenic call (Test System: AMES SALMONELLA TYPHIMURIUM, Strain/Indicator: TA100, Metabolic Activation: RAT, LIVER, S-9, PHENOBARBITAL AND BETA-NAPHTHOFLAVONE, Method: STANDARD PLATE) was “inactive; negative”. For the same molecule, the mutagenic call (Test System: AMES SALMONELLA TYPHIMURIUM, Strain/Indicator: TA102, Metabolic Activation: NONE, Method: PREINCUBATION) was “inactive; negative”, the mutagenic call (Test System: AMES SALMONELLA TYPHIMURIUM, Strain/Indicator: TA102, Metabolic Activation: NONE, Method: STANDARD PLATE) was “inactive; negative” and the mutagenic call (Test System: AMES SALMONELLA TYPHIMURIUM, Strain/Indicator: TA102, Metabolic Activation: RAT, LIVER, S-9, PHENOBARBITAL AND BETA-NAPHTHOFLAVONE, Method: PREINCUBATION) was “inactive; negative”. The mutagenic call (Test System: AMES SALMONELLA TYPHIMURIUM, Strain/Indicator: TA102, Metabolic Activation: RAT, LIVER, S-9, PHENOBARBITAL AND BETA-NAPHTHOFLAVONE, Method: STANDARD PLATE) was “inactive; negative”, the mutagenic call (Test System: AMES SALMONELLA TYPHIMURIUM, Strain/Indicator: TA1535, Metabolic Activation: NONE, Method: PREINCUBATION) was “inactive; negative” and the mutagenic call (Test System: AMES SALMONELLA TYPHIMURIUM, Strain/Indicator: TA1535, Metabolic Activation: NONE, Method: STANDARD PLATE) was “inactive; negative”. The mutagenic call (Test System: AMES SALMONELLA TYPHIMURIUM, Strain/Indicator: TA1535, Metabolic Activation: RAT, LIVER, S-9, PHENOBARBITAL AND BETA-NAPHTHOFLAVONE, Method: PREINCUBATION) was “inactive; negative”, the mutagenic call (Test System: AMES SALMONELLA TYPHIMURIUM, Strain/Indicator: TA1535, Metabolic Activation: RAT, LIVER, S-9, PHENOBARBITAL AND BETA-NAPHTHOFLAVONE, Method: STANDARD PLATE) was “inactive; negative” and the mutagenic call (Test System: AMES SALMONELLA TYPHIMURIUM, Strain/Indicator: TA1537, Metabolic Activation: NONE, Method: PREINCUBATION) was “inactive; negative”. For the same molecule, the mutagenic call (Test System: AMES SALMONELLA TYPHIMURIUM, Strain/Indicator: TA1537, Metabolic Activation: NONE, Method: STANDARD PLATE) was “inactive; negative”, the mutagenic call (Test System: AMES SALMONELLA TYPHIMURIUM, Strain/Indicator: TA1537, Metabolic Activation: RAT, LIVER, S-9, PHENOBARBITAL AND BETA-NAPHTHOFLAVONE, Method: PREINCUBATION) was “inactive; negative” and the mutagenic call (Test System: AMES SALMONELLA TYPHIMURIUM, Strain/Indicator: TA1537, Metabolic Activation: RAT, LIVER, S-9, PHENOBARBITAL AND BETA-NAPHTHOFLAVONE, Method: STANDARD PLATE) was “inactive; negative”. The mutagenic call (Test System: AMES SALMONELLA TYPHIMURIUM, Strain/Indicator: TA1538, Metabolic Activation: NONE, Method: PREINCUBATION) was “inactive; negative”, the mutagenic call (Test System: AMES SALMONELLA TYPHIMURIUM, Strain/Indicator: TA1538, Metabolic Activation: NONE, Method: STANDARD PLATE) was “inactive; negative” and the mutagenic call (Test System: AMES SALMONELLA TYPHIMURIUM, Strain/Indicator: TA1538, Metabolic Activation: RAT, LIVER, S-9, PHENOBARBITAL AND BETA-NAPHTHOFLAVONE, Method: PREINCUBATION) was “inactive; negative”. For the same molecule, the mutagenic call (Test System: AMES SALMONELLA TYPHIMURIUM, Strain/Indicator: TA1538, Metabolic Activation: RAT, LIVER, S-9, PHENOBARBITAL AND BETA-NAPHTHOFLAVONE, Method: STANDARD PLATE) was “inactive; negative”.

For `C/[N+]([O-])=N/CO`, the mutagenic call (Test System: AMES SALMONELLA TYPHIMURIUM, Strain/Indicator: G46, Metabolic Activation: NONE, Method: STANDARD PLATE) was “active; positive”, the mutagenic call (Test System: AMES SALMONELLA TYPHIMURIUM, Strain/Indicator: TA100, Metabolic Activation: RAT, LIVER, S-9, KC500 OR PHENOBARBITAL, Method: LIQUID SUSPENSION) was “active; positive” and the mutagenic call (Test System: AMES SALMONELLA TYPHIMURIUM, Strain/Indicator: TA1535, Metabolic Activation: RAT, LIVER, S-9, KC500 OR PHENOBARBITAL, Method: LIQUID SUSPENSION) was “active; positive”. The mutagenic call (Test System: CHINESE HAMSTER V-79, Strain/Indicator: V-79/OUABAIN, Metabolic Activation: NONE, Method: STANDARD PLATE) was “active; positive”.

In the case of `CCOc1ccc(N=O)cc1`, the mutagenic call [1] is reported as “active; positive”, the mutagenic call (Test System: AMES SALMONELLA TYPHIMURIUM, Strain/Indicator: TA98, Metabolic Activation: RAT, LIVER, S-9, AROCLOR 1254, Method: STANDARD PLATE) is reported as “active; positive” and the mutagenic call (Test System: AMES SALMONELLA TYPHIMURIUM, Strain/Indicator: TA100(NR), Metabolic Activation: NONE, Method: PREINCUBATION) is reported as “active; positive”. The mutagenic call (Test System: AMES SALMONELLA TYPHIMURIUM, Strain/Indicator: TA100(NR), Metabolic Activation: NONE, Method: STANDARD PLATE) was “active; positive”, the mutagenic call (Test System: AMES SALMONELLA TYPHIMURIUM, Strain/Indicator: TA100(NR), Metabolic Activation: RAT, LIVER, S-9, AROCLOR 1254, Method: PREINCUBATION) was “active; positive” and the mutagenic call (Test System: AMES SALMONELLA TYPHIMURIUM, Strain/Indicator: TA100(NR), Metabolic Activation: RAT, LIVER, S-9, AROCLOR 1254, Method: STANDARD PLATE) was “active; positive”. For the same molecule, the mutagenic call (Test System: AMES SALMONELLA TYPHIMURIUM, Strain/Indicator: TA100, Metabolic Activation: HAMSTER, LIVER, S-9, KANECHLOR 400, Method: PREINCUBATION) was “active; positive”, the mutagenic call [2] was “active; positive” and the mutagenic call [3] was “active; positive”. For the same molecule, the mutagenic call (Test System: AMES SALMONELLA TYPHIMURIUM, Strain/Indicator: TA100, Metabolic Activation: RAT, LIVER, S-9, AROCLOR 1254, Method: PREINCUBATION) was “active; positive”, the mutagenic call (Test System: AMES SALMONELLA TYPHIMURIUM, Strain/Indicator: TA100, Metabolic Activation: RAT, LIVER, S-9, AROCLOR 1254, Method: STANDARD PLATE) was “active; positive” and the mutagenic call (Test System: AMES SALMONELLA TYPHIMURIUM, Strain/Indicator: TA100TN5-1,8-DNP1011, Metabolic Activation: NONE, Method: PREINCUBATION) was “active; positive”. For the same molecule, the mutagenic call (Test System: AMES SALMONELLA TYPHIMURIUM, Strain/Indicator: TA100TN5-1,8-DNP1011, Metabolic Activation: NONE, Method: STANDARD PLATE) was “active; positive”, the mutagenic call (Test System: AMES SALMONELLA TYPHIMURIUM, Strain/Indicator: TA100TN5-1,8-DNP1011, Metabolic Activation: RAT, LIVER, S-9, AROCLOR 1254, Method: PREINCUBATION) was “active; positive” and the mutagenic call (Test System: AMES SALMONELLA TYPHIMURIUM, Strain/Indicator: TA100TN5-1,8-DNP1011, Metabolic Activation: RAT, LIVER, S-9, AROCLOR 1254, Method: STANDARD PLATE) was “active; positive”. The mutagenic call (Test System: AMES SALMONELLA TYPHIMURIUM, Strain/Indicator: TA100TN5-1,8-DNP1012, Metabolic Activation: NONE, Method: PREINCUBATION) was “active; positive”, the mutagenic call (Test System: AMES SALMONELLA TYPHIMURIUM, Strain/Indicator: TA100TN5-1,8-DNP1012, Metabolic Activation: NONE, Method: STANDARD PLATE) was “active; positive” and the mutagenic call (Test System: AMES SALMONELLA TYPHIMURIUM, Strain/Indicator: TA100TN5-1,8-DNP1012, Metabolic Activation: RAT, LIVER, S-9, AROCLOR 1254, Method: PREINCUBATION) was “active; positive”. For the same molecule, the mutagenic call (Test System: AMES SALMONELLA TYPHIMURIUM, Strain/Indicator: TA100TN5-1,8-DNP1012, Metabolic Activation: RAT, LIVER, S-9, AROCLOR 1254, Method: STANDARD PLATE) was “active; positive”.
